Calls of active or inactive are those of the source. No cut-off for these calls is given here.
Assays:
Assay type in all cases: cell-based
[1] = target: T1, Glucocorticoid receptor (Homo sapiens) (UniProt P04150); assay: (§1) Agonist activity at GR in human HepG2 cells assessed as protein mediated-transcriptional activity by MMTV-promoter driven luciferase reporter gene assay
T1 sequence (whole entry): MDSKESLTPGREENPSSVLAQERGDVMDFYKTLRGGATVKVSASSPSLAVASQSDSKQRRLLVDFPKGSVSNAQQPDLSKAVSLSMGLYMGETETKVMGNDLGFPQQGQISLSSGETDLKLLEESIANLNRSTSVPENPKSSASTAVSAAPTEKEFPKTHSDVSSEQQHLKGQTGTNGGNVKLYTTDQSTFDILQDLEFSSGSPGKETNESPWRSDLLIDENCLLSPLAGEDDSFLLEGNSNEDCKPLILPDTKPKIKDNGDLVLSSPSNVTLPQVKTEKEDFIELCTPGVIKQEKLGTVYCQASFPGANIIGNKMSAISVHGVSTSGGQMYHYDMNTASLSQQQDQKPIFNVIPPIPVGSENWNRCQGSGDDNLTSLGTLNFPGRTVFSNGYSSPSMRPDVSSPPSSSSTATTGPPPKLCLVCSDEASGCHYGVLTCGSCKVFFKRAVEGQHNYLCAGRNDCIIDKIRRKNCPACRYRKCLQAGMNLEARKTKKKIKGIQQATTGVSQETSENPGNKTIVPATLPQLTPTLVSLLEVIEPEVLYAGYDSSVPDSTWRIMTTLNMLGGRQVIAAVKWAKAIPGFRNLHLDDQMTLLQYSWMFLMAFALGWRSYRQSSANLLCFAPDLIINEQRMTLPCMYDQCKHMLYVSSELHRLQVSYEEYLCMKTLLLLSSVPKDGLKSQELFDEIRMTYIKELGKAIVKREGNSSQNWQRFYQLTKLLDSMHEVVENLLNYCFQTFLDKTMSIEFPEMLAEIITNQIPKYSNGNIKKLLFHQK

[2] = target: T1, Glucocorticoid receptor (Homo sapiens); assay: (§2) Antagonist activity at GR in human HepG2 cells assessed as inhibition of protein mediated-transcriptional activity by MMTV-promoter driven luciferase reporter gene assay
Glucocorticoid receptor [3] = target: T2, Glucocorticoid receptor (Homo sapiens, UniProt P04150); assay: as §2
T2 sequence (P04150 whole entry): T1 sequence (whole entry)

[4] = target: T3, Glucocorticoid receptor (Mus musculus) (UniProt P06537); assay: Agonist activity at GR in mouse C2C12 cells assessed as suppression of LPS-induced IL6 production by alphaLISA assay
T3 sequence (whole entry): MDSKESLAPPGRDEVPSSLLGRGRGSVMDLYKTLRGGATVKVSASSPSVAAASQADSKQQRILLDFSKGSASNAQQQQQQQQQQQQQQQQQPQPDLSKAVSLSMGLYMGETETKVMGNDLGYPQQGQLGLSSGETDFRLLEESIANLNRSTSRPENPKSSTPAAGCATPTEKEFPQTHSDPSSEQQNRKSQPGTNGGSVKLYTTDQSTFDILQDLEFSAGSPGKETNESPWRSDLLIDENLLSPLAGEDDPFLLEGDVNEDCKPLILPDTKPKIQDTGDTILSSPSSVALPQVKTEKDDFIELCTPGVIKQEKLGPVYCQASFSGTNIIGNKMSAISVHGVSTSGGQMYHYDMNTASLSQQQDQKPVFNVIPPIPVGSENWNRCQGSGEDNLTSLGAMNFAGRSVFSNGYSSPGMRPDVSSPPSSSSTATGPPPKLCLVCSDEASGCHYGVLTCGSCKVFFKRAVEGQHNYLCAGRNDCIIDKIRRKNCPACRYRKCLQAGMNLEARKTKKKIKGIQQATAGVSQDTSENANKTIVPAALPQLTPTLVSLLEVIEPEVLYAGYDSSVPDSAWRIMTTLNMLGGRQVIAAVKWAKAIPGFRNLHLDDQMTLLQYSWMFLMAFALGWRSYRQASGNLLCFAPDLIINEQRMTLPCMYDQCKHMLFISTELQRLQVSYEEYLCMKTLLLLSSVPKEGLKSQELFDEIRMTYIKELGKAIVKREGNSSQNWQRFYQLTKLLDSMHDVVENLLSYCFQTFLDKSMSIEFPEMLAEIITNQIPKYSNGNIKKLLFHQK

Glucocorticoid receptor [5] = target: T2, Glucocorticoid receptor; assay: as §1
[6] = target: T3, Glucocorticoid receptor (Mus musculus); assay: Antagonist activity at GR in mouse C2C12 cells assessed as increase in LPS-induced IL6 production by alphaLISA assay relative to control; set-up: scale not given: the % may be the effect or the level left
[7] = target: T1, Glucocorticoid receptor (Homo sapiens); assay: Antagonist activity at GR in human HepG2 cells assessed as inhibition of protein mediated-transcriptional activity at 10 uM by MMTV-promoter driven luciferase reporter gene assay

Structure (SMILES) | Efficacy [1] | Efficacy [2] | IC50 (Glucocorticoid receptor [3]) | Activity [4] | EC50 (Glucocorticoid receptor [5]) | Activity [6] | Efficacy [7]
CC#C[C@]1(O)CC[C@H]2[C@@H]3CCc4cc(C(=O)Nc5cccnc5C)ccc4[C@H]3[C@@H](OCc3ccccc3)C[C@@]21C | -0.4% | -0.1% | 0.4 nM | Active |  |  | 
CC#C[C@]1(O)CC[C@H]2[C@@H]3CCc4cc(C(=O)Nc5cccnc5C)ccc4[C@H]3[C@H](O)C[C@@]21C | 19.4% | 55% |  | Active |  |  | 
C=CCO[C@H]1C[C@@]2(C)[C@@H](CC[C@@]2(O)C#CC)[C@@H]2CCc3cc(C(=O)Nc4cccnc4C)ccc3[C@H]21 | 56% | 57% | 0.03 nM | Active | 0.11 nM |  | 
CC#C[C@]1(O)CC[C@H]2[C@@H]3CCc4cc(C(=O)Nc5cccnc5C)ccc4[C@H]3[C@@H](OCc3ccc(Cl)cc3)C[C@@]21C | -0.2% | 0.06% | 0.07 nM | Active |  |  | 
Cc1ncccc1NC(=O)c1ccc2c(c1)CC[C@@H]1[C@@H]2[C@@H](O)C[C@@]2(C)[C@H]1CC[C@@]2(O)C#Cc1ccccc1 | 2.1% | 1.4% | 558 nM |  |  | Active | 
CC#C[C@]1(O)CC[C@H]2[C@@H]3CCc4cc(C(=O)Nc5ccncc5C)ccc4[C@H]3[C@@H](O)C[C@@]21C | 12% | 23% | 1360 nM |  | 149 nM | Active | 
CC#C[C@]1(O)CC[C@H]2[C@@H]3CCc4cc(C(=O)Nc5cccnc5C)ccc4[C@H]3[C@@H](OCc3ccccc3Cl)C[C@@]21C | 0.6% | 1.7% | 1.4 nM | Active |  |  | 
CC#C[C@]1(O)CC[C@H]2[C@@H]3CCc4cc(C(=O)Nc5cccnc5C)ccc4[C@H]3[C@@H](OC)C[C@@]21C | 71% | 84% |  | Active | 0.04 nM |  | 
Cc1ncccc1NC(=O)c1ccc2c(c1)CC[C@@H]1[C@@H]2[C@@H](O)C[C@@]2(C)[C@H]1CC[C@]2(C)O | -0.5% | 112% |  |  |  | Active | 
CC#C[C@]1(O)CC[C@H]2[C@@H]3CCc4cc(C(=O)Nc5cccnc5C)ccc4[C@H]3[C@@H](OCC)C[C@@]21C | 67% | 73% |  | Active | 0.05 nM |  | 
CC#C[C@]1(O)CC[C@H]2[C@@H]3CCc4cc(C(=O)Nc5cccnc5C)ccc4[C@H]3[C@@H](OCc3cccc(Cl)c3)C[C@@]21C | 0.2% | -0.3% | 0.9 nM | Active |  |  | 
CC#C[C@]1(O)CC[C@H]2[C@@H]3CCc4cc(C(=O)Nc5cnccc5C)ccc4[C@H]3[C@@H](O)C[C@@]21C | 73% | 147% |  | Active | 240 nM |  | 
CC#C[C@]1(O)CC[C@H]2[C@@H]3CCc4cc(C(=O)Nc5cccnc5C)ccc4C3=CC[C@@]21C | 51.6% | 30.6% |  | Active | 1860 nM |  | 
CCCCC#C[C@]1(O)CC[C@H]2[C@@H]3CCc4cc(C(=O)Nc5cccnc5C)ccc4[C@H]3[C@@H](O)C[C@@]21C | 56% | 74% | 2350 nM |  | 100 nM | Active | 
Cc1ncccc1NC(=O)c1ccc2c(c1)CC[C@@H]1[C@@H]2[C@@H](O)C[C@]2(C)[C@@H](O)CC[C@@H]12 | 0.4% | 85% |  |  |  | Active | 
CC#C[C@]1(O)CC[C@H]2[C@@H]3CCc4cc(C(=O)Nc5cccnc5)ccc4[C@H]3[C@@H](O)C[C@@]21C | 0.2% | 10% | 455 nM |  |  | 50% | 
Cc1ncccc1NC(=O)c1ccc2c(c1)CC[C@@H]1[C@@H]2[C@@H](O)C[C@@]2(C)[C@H]1CC[C@@]2(O)C#C[Si](C)(C)C | 110% | 90% |  |  | 47 nM | Active | 
C=CCOC(=O)O[C@H]1C[C@@]2(C)[C@@H](CC[C@@]2(O)C#CC)[C@@H]2CCc3cc(C(=O)Nc4cccnc4C)ccc3[C@H]21 | 2.4% | -0.7% | 84 nM | Active |  |  | 
Cc1ncccc1NC(=O)c1ccc2c(c1)CC[C@@H]1[C@@H]2[C@@H](O)C[C@@]2(C)[C@H]1CC[C@@]2(O)C#CC(C)C | 28% | 39% | 37 nM |  | > 5000 nM | Active | 
CC#C[C@]1(O)CC[C@H]2[C@@H]3CCc4cc(C(=O)Nc5cncc(C)c5)ccc4[C@H]3[C@@H](O)C[C@@]21C | -0.1% |  |  |  |  | Active | 22%
CC#C[C@]1(O)CC[C@H]2[C@@H]3CCc4cc(C(=O)Nc5ncccc5C)ccc4[C@H]3[C@@H](O)C[C@@]21C | 92% | 239% |  | Active | 280 nM |  | 
CC#C[C@]1(O)CC[C@H]2[C@@H]3CCc4cc(C(=O)Nc5cccnc5C)ccc4[C@H]3[C@@H](O)C[C@@]21C | 35% | 46% | 626 nM | Active | 265 nM |  | 
C#C[C@]1(O)CC[C@H]2[C@@H]3CCc4cc(C(=O)Nc5cccnc5C)ccc4[C@H]3[C@@H](O)C[C@@]21C | 3.2% | 96% |  |  |  | Active | 

From ChEMBL document CHEMBL3871302, “Synthesis of novel steroidal agonists, partial agonists, and antagonists for the glucocorticoid receptor” (Bioorg Med Chem Lett, 2017)
